Drawing on patent publication US10039283B2, “Substituted pyrazolyl-nicotin(thio)amide derivatives and their use as fungicides” (BAYER CROPSCIENCE AKTIENGESELLSCHAFT, priority 2014, dated 2018), this text covers LogP for 55 molecules.

A short description of this data set: Log P by HPLC on reversed phase, method [a], acidic range (0.1% formic acid). The settings on record: LC-UV, 0.1% formic acid in water and acetonitrile. In kind it is physicochemical.
For `O=C(Nc1cnn(-c2cccc(Cl)c2)c1C(F)(F)F)c1cccnc1C(F)F` [Example 84], the LogP was 3.00^[a].

Regarding `O=C(Nc1cnn(-c2cccc(C(F)(F)F)c2)c1C(F)(F)F)c1cccnc1C(F)F` [Example 85], the LogP was 3.19^[a].

With `Cc1cccc(-n2ncc(NC(=O)c3cccnc3C(F)F)c2C(F)(F)F)c1` [Example 86], the LogP was 2.73^[a].

Consider `Cc1ccc(-n2ncc(NC(=O)c3cccnc3C(F)F)c2C(F)(F)F)cc1` [Example 87], for which the LogP was 2.86^[a].

As to `O=C(Nc1cnn(-c2ccccc2F)c1C(F)(F)F)c1cccnc1C(F)F` [Example 88], the LogP was 2.55^[a].

As for `O=C(Nc1cnn(-c2ccc(F)cc2)c1C(F)(F)F)c1cccnc1C(F)F` [Example 89], the LogP is 2.64^[a].

For the molecule `CC(C)c1ccc(-n2ncc(NC(=O)c3cccnc3C(F)F)c2C(F)(F)F)cc1` [Example 90], the LogP was 3.55^[a].

On to `O=C(Nc1cnn(-c2c(Cl)cccc2Cl)c1C(F)(F)F)c1cccnc1C(F)F` [Example 91], for which the LogP was 2.94^[a].

For `O=C(Nc1cnn(-c2cc(Cl)cc(Cl)c2)c1C(F)(F)F)c1cccnc1C(F)F` [Example 92], the LogP is 3.64^[a].

Take `O=C(Nc1cnn(-c2ccc(Cl)cc2Cl)c1C(F)(F)F)c1cccnc1C(F)F` [Example 93]: the LogP is 3.27^[a].

Regarding `O=C(Nc1cnn(-c2cccc(Cl)c2Cl)c1C(F)(F)F)c1cccnc1C(F)F` [Example 94], the LogP was 3.11^[a].

For `O=C(Nc1cnn(-c2cc(Cl)ccc2Cl)c1C(F)(F)F)c1cccnc1C(F)F` [Example 95], the LogP was 3.15^[a].

Regarding `O=C(Nc1cnn(-c2ccc(Cl)c(Cl)c2)c1C(F)(F)F)c1cccnc1C(F)F` [Example 96], the LogP was 3.51^[a].

As for `O=C(Nc1cnn(Cc2ccccc2)c1C(F)(F)F)c1cccnc1C(F)F` [Example 97], the LogP is 2.71^[a].

Consider `COc1c(NC(=O)c2cccnc2C(F)F)cnn1-c1ccccc1` [Example 98], for which the LogP is 1.82^[a].

`CCc1c(NC(=O)c2cccnc2C(F)F)cnn1-c1ccc(C)cc1` [Example 99]: the LogP is 2.34^[a].

Turning to `CCc1c(NC(=O)c2cccnc2C(F)F)cnn1-c1cccc(C)c1` [Example 100], the LogP is 2.34^[a].

With `Cc1ccc(-n2ncc(NC(=O)c3cc(C)cnc3C(F)F)c2C(F)(F)F)cc1` [Example 101], the LogP was 3.13^[a].

`CC(C)c1c(NC(=O)c2cccnc2C(F)F)cnn1-c1ccc(Cl)cc1` [Example 102]: the LogP is 2.62^[a].

`CC(C)c1c(NC(=O)c2cccnc2C(F)F)cnn1-c1cccc(Cl)c1` [Example 103]: the LogP was 2.60^[a].

Consider `CCc1c(NC(=O)c2cccnc2C(F)F)cnn1-c1ccccc1C` [Example 104], for which the LogP is 2.18^[a].

On to `CCc1c(NC(=O)c2cccnc2C(F)F)cnn1-c1ccc(Cl)cc1` [Example 105], for which the LogP was 2.48^[a].

Turning to `Cc1ccccc1-n1ncc(NC(=O)c2cccnc2C(F)F)c1C(C)C` [Example 106], the LogP was 2.37^[a].

As for `CCc1c(NC(=O)c2cccnc2C(F)F)cnn1-c1cccc(Cl)c1` [Example 107], the LogP was 2.48^[a].

For `Cc1ccc(-n2ncc(NC(=O)c3cccnc3C(F)F)c2C(C)C)cc1` [Example 108], the LogP is 2.48^[a].

Turning to `CC(C)c1c(NC(=O)c2cccnc2C(F)F)cnn1-c1ccccc1Cl` [Example 109], the LogP is 2.35^[a].

Consider `CCc1c(NC(=O)c2cccnc2C(F)F)cnn1-c1ccccc1Cl` [Example 110], for which the LogP was 2.17^[a].

Turning to `Cc1c(NC(=O)c2cccnc2C(F)F)cnn1-c1ccccc1C(F)(F)F` [Example 111], the LogP was 2.08^[a].

As for `Cc1ccc(-n2ncc(NC(=O)c3cccnc3C(F)F)c2C)cc1` [Example 112], the LogP is 2.10^[a].

`Cc1c(NC(=O)c2cccnc2C(F)F)cnn1-c1cccc(C(F)(F)F)c1` [Example 113]: the LogP was 2.48^[a].

Take `Cc1c(NC(=O)c2cccnc2C(F)F)cnn1-c1ccc(C(F)(F)F)cc1` [Example 114]: the LogP is 2.53^[a].

Consider `Cc1ccccc1-n1ncc(NC(=O)c2cccnc2C(F)F)c1C` [Example 115], for which the LogP was 1.93^[a].

On to `Cc1cccc(-n2ncc(NC(=O)c3cccnc3C(F)F)c2C(C)C)c1` [Example 116], for which the LogP was 2.50^[a].

For the molecule `CCc1c(NC(=O)c2cccnc2C(F)F)cnn1-c1cccc(C(F)(F)F)c1` [Example 117], the LogP was 2.69^[a].

As for `CCc1c(NC(=O)c2cccnc2C(F)F)cnn1-c1ccc(C(F)(F)F)cc1` [Example 118], the LogP is 2.76^[a].

As to `CCc1c(NC(=O)c2cccnc2C(F)F)cnn1-c1ccccc1` [Example 119], the LogP is 2.01^[a].

In the case of `CC(C)c1c(NC(=O)c2cccnc2C(F)F)cnn1-c1ccccc1` [Example 120], the LogP was 2.15^[a].

On to `CCCc1c(NC(=O)c2cccnc2C(F)F)cnn1-c1ccccc1` [Example 121], for which the LogP is 2.28^[a].

For `CCCCn1ncc(NC(=O)c2cccnc2C(F)F)c1CC` [Example 122], the LogP was 2.00^[a].

Turning to `CCCCn1ncc(NC(=O)c2cccnc2C(F)F)c1C(C)C` [Example 123], the LogP is 2.18^[a].

Turning to `CCc1c(NC(=O)c2cccnc2C(F)F)cnn1CCC(C)C` [Example 124], the LogP was 2.32^[a].

For `CC(C)CCn1ncc(NC(=O)c2cccnc2C(F)F)c1C(C)C` [Example 125], the LogP was 2.53^[a].

Consider `CCC(C)n1ncc(NC(=O)c2cccnc2C(F)F)c1C` (stereo not shown) [Example 126], for which the LogP was 1.63^[a].

For `CCc1c(NC(=O)c2cccnc2C(F)F)cnn1C(CC)CC` [Example 127], the LogP was 2.20^[a].

For the molecule `O=C(Nc1cnn(-c2ccc(F)cc2)c1-c1cccc(Cl)c1)c1cccnc1C(F)F` [Example 128], the LogP was 2.92^[a].

Consider `O=C(Nc1cnn(-c2ccccc2C(F)(F)F)c1-c1ccccc1)c1cccnc1C(F)F` [Example 129], for which the LogP is 2.70^[a].

With `O=C(Nc1cnn(-c2ccccc2C(F)(F)F)c1-c1ccc(F)cc1)c1cccnc1C(F)F` [Example 130], the LogP was 2.80^[a].

For the molecule `O=C(Nc1cnn(-c2ccccc2C(F)(F)F)c1-c1cccc(F)c1)c1cccnc1C(F)F` [Example 131], the LogP was 2.80^[a].

Regarding `O=C(Nc1cnn(-c2ccccc2C(F)(F)F)c1-c1ccc(Cl)cc1)c1cccnc1C(F)F` [Example 132], the LogP was 3.04^[a].

Take `Cc1cnc(C(F)F)c(C(=O)Nc2cnn(-c3ccc(Br)cc3)c2C)c1` [Example 133]: the LogP is 2.59^[a].

As for `Cc1c(NC(=O)c2cccnc2C(F)F)cnn1-c1ccc(Br)cc1` [Example 134], the LogP was 2.34^[a].

For `O=C(Nc1cnn(-c2ccccc2)c1Br)c1cccnc1C(F)F` [Example 135], the LogP was 2.07^[a].

As for `COc1cnc(C(F)F)c(C(=O)Nc2cnn(-c3ccc(Cl)c(Cl)c3)c2C(F)(F)F)c1` [Example 136], the LogP is 3.76^[a].

With `O=C(Nc1cnn(-c2ccccc2)c1Cl)c1cccnc1C(F)F` [Example 137], the LogP was 2.07^[a].

Regarding `Cc1cnc(C(F)F)c(C(=O)Nc2cnn(-c3cccc(Cl)c3)c2C(F)(F)F)c1` [Example 138], the LogP is 3.25^[a].
